From patent publication US11827596B2, “Thyromimetics” (Autobahn Therapeutics, Inc., priority 2018, dated 2023) come the findings set out here.

SMILES strings stand for the structures.

One data set concerns the target T1, TRβ (Homo sapiens, UniProt P10828).
T1 construct: expressed in transfected cells; host or cells: HEK293-derived reporter cells
T1 sequence (P10828 217-461 limits assumed): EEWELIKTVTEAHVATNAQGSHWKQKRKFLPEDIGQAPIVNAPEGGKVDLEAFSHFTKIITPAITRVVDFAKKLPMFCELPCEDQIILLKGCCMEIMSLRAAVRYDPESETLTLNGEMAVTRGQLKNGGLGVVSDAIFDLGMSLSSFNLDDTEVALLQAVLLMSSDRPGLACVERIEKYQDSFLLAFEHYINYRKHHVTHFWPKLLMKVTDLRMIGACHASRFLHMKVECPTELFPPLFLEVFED
The data set is described as follows: Thyroid-hormone reporter-gene assay (Gal4-TR hybrid, luciferase), TRβ. The settings on record: for T3-benchmarked selectivity index (T3-SI): EC50 (TRα)*T3-EC50 (TRβ)/EC50 (TRβ)*T3-EC50 (TRα), T3 in the same experiment; for EC50: HEK293-derived reporter cells, 24 hr incubation. The format is cell-based. How it is done: (§1) Reporter cells used in the assays express a TR-receptor hybrid (either TRα or […]) in which the native N-terminal DNA binding domain (DBD) has been replaced with that of the yeast Gal4 DBD. The reporter gene, firefly luciferase, is functionally linked to the Gal4 upstream activation sequence (UAS). Both cell lines were derived from human embryonic kidney (HEK293).
(§2) Step 1: A suspension of reporter cells was prepared in cell recovery medium containing 10% charcoal-stripped FBS, and dispensed into assay plates. The plates were pre-incubated for 6 hours in a cell culture incubator (37° C./5% CO2/85% humidity).
(§3) These Intermediate Stocks were subsequently diluted directly into compound screening medium containing 10% charcoal-stripped FBS to generate “2×-concentration” treatment media (containing 0.2, 0.4 or 0.8% DMSO).
(§4) Step 3: At the end of the pre-incubation period, culture media were discarded from the assay plates, and all wells received 100 μl of compound screening medium. 100 μl of each of the previously prepared “2×-concentration” treatment media were dispensed into duplicate assay wells, thereby achieving the desired final treatment concentrations. The final concentration of DMSO in all assay wells was 0.1, 0.2 or 0.4%. Assay plates were incubated for 24 hr in a cell culture incubator (37° C./5% CO2/85% humidity).
(§5) Step 4: At the 24 h assay endpoint, treatment media were discarded and 100 μl/well of luciferase detection reagent was added. Relative luminometer units (RLUs) were quantified from each assay well.

Another data set concerns the target T2, TRα (Homo sapiens, UniProt P10827).
T2 construct: The firefly luciferase reporter under the Gal4 UAS is a separate reporter gene
T2 sequence (P10827 163-410 isoform P10827-2 limits assumed): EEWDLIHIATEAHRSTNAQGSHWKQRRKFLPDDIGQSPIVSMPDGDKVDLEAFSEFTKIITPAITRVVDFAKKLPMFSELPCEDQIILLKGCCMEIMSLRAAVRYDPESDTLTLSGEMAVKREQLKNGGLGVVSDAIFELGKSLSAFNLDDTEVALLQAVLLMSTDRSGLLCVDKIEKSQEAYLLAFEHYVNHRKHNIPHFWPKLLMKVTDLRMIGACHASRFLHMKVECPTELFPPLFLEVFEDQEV
The data set is described as follows: Thyroid-hormone reporter-gene assay (Gal4-TR hybrid, luciferase), TRα. The data set is classed as cell-based. The settings on record: HEK293-derived reporter cells, 24 hr incubation. The method, then:
as §1, §2, §3, §4, §5

The nature of data set [1]: Tissue distribution study, brain concentration of parent acid after prodrug dosing. The data set is classed as in vivo, male C57Bl/6 mice. To be noted: 1 hr after SC dosing (0.1 mg/kg) of the prodrug; parent acid measured; compared to dichloro-prodrug and Sob-AM2 (FIG. 2). The method, then: For tissue concentration studies in male C57Bl/6 mice, test compounds are formulated as NMP/solutol/PBS solution, at a concentration of 0.05 mg/mL and dosed at 2 mL/kg with the targeted dose of 0.100 mg/kg via SC injection or oral dosing. […] Tissue homogenates and plasma concentrations of test compounds are determined using LC-MS/MS with lower limits of quantitation of 0.0200 ng/mL or 0.100 ng/g. The pharmacokinetic parameters are determined by non-compartmental methods using WinNonlin.
FIG. 2 depicts brain levels of Compound 2 recorded 1 hr after SC dosing (0.1 mg/kg) of the corresponding prodrug Compound 3.

Regarding `CC(C)c1cc(Cc2c(Cl)cc(OCC(=O)O)cc2C(C)C)ccc1O` [Compound 31, 2-(3-chloro-4-(4-hydroxy-3-isopropylbenzyl)-5-isopropylphenoxy)acetic acid], the “T3-benchmarked selectivity index (T3-SI)” value at TRβ was “++ (3×<T3-SI≤30×)”. The concentration for a half-maximal effect (EC50) on TRβ is less than 10 nM; on TRα, 10 to 100 nM.
The matching figures for `Cc1cc(OCC(=O)O)cc(C2CC2)c1Cc1ccc(O)c(C(C)C)c1` [Compound 27, 2-(3-cyclopropyl-4-(4-hydroxy-3-isopropylbenzyl)-5-methylphenoxy)acetic acid]: “++ (3×<T3-SI≤30×)”, 100 to 1000 nM and greater than 1000 nM.
As to `Cc1cc(OCC(=O)O)cc(Br)c1Cc1ccc(O)c(C(C)C)c1` [Compound 5, 2-(3-bromo-4-(4-hydroxy-3-isopropylbenzyl)-5-methylphenoxy)acetic acid], on TRβ, the “T3-benchmarked selectivity index (T3-SI)” value was “++ (3×<T3-SI≤30×)” and the EC50 lay within 10 to 100 nM. Besides, the “functional EC50 (TRβ)” value at TRβ (TR screening) is “equipotent with the di-bromo analog”. This molecule registered a concentration for a half-maximal effect (EC50) at TRα of 10 to 100 nM.
`Cc1cc(OCC(=O)O)cc(C(C)C)c1Cc1ccc(O)c(C(C)C)c1` [Compound 21, 2-(4-(4-hydroxy-3-isopropylbenzyl)-3-isopropyl-5-methylphenoxy)acetic acid]: the “T3-benchmarked selectivity index (T3-SI)” value at TRβ was “++ (3×<T3-SI≤30×)”. The EC50 on TRβ and at TRα was 10 to 100 nM each time.
`Cc1cc(OCC(=O)O)cc(Cl)c1Cc1ccc(O)c(C(C)C)c1` [Compound 2, 2-(3-chloro-4-(4-hydroxy-3-isopropylbenzyl)-5-methylphenoxy)acetic acid]: on TRβ, the “T3-benchmarked selectivity index (T3-SI)” value is “++ (3×<T3-SI≤30×)” and the concentration for a half-maximal effect (EC50) lay in the range of 100 to 1000 nM. The same molecule returned an EC50 at TRα of 100 to 1000 nM.
In the case of `C/C=C/c1cc(OCC(=O)O)cc(C)c1Cc1ccc(O)c(C(C)C)c1` [Compound 23, (E)-2-(4-(4-hydroxy-3-isopropylbenzyl)-3-methyl-5-(prop-1-enyl)phenoxy)acetic acid], at TRβ, the “T3-benchmarked selectivity index (T3-SI)” value was “++ (3×<T3-SI≤30×)” and the half-maximal effective concentration (EC50) lay in the range of 100 to 1000 nM. Also, the 50% effective concentration (EC50) at TRα is greater than 1000 nM.
The matching figures for `Cc1cc(OCC(=O)O)cc(C(F)(F)F)c1Cc1ccc(O)c(C(C)C)c1` [Compound 11, 2-(4-(4-hydroxy-3-isopropylbenzyl)-3-methyl-5-(trifluoromethyl)phenoxy)acetic acid]: “++ (3×<T3-SI≤30×)”, 10 to 100 nM and 100 to 1000 nM.
Taken in the same sequence, the figures for `CCc1cc(OCC(=O)O)cc(C)c1Cc1ccc(O)c(C(C)C)c1` [Compound 16, 2-(3-ethyl-4-(4-hydroxy-3-isopropylbenzyl)-5-methylphenoxy)acetic acid] were “++ (3×<T3-SI≤30×)”, 10 to 100 nM and 100 to 1000 nM.
Take `C=C(C)c1cc(OCC(=O)O)cc(Cl)c1Cc1ccc(O)c(C(C)C)c1` [Compound 30, 2-(3-chloro-4-(4-hydroxy-3-isopropylbenzyl)-5-(prop-1-en-2-yl)phenoxy)acetic acid]: at TRβ, the “T3-benchmarked selectivity index (T3-SI)” value is “++ (3×<T3-SI≤30×)”. Moreover, the concentration giving a half-maximal response (EC50) was 10 to 100 nM at TRβ and 100 to 1000 nM on TRα.
`CC(C)c1cc(Cc2c(Cl)cc(OCC(=O)O)cc2C(F)(F)F)ccc1O` [Compound 18, 2-(3-chloro-4-(4-hydroxy-3-isopropylbenzyl)-5-(trifluoromethyl)phenoxy)acetic acid]: the “T3-benchmarked selectivity index (T3-SI)” value at TRβ was “++ (3×<T3-SI≤30×)”. The EC50 at TRβ and on TRα was 10 to 100 nM each time.
On to `C=C(C)c1cc(OCC(=O)O)cc(C)c1Cc1ccc(O)c(C(C)C)c1` [Compound 20, 2-(4-(4-hydroxy-3-isopropylbenzyl)-3-methyl-5-(prop-1-en-2-yl)phenoxy)acetic acid], for which, at TRβ, the “T3-benchmarked selectivity index (T3-SI)” value is “++ (3×<T3-SI≤30×)”. The concentration giving a half-maximal response (EC50) fell in the range of 10 to 100 nM on TRβ and 100 to 1000 nM at TRα.
Taken in the same sequence, the figures for `CCc1cc(OCC(=O)O)cc(Cl)c1Cc1ccc(O)c(C(C)C)c1` [Compound 8, 2-(3-chloro-5-ethyl-4-(4-hydroxy-3-isopropylbenzyl)phenoxy)acetic acid] were “++ (3×<T3-SI≤30×)”, 10 to 100 nM and 100 to 1000 nM.
As for `CNC(=O)COc1cc(C)c(Cc2ccc(O)c(C(C)C)c2)c(Cl)c1` [Compound 3, 2-(3-chloro-4-(4-hydroxy-3-isopropylbenzyl)-5-methylphenoxy)-N-methylacetamide], the “brain concentration of the parent acid” value in data set [1] was “dramatic increase in brain concentration of the parent acid”.
In the case of `CCCc1cc(OCC(=O)O)cc(C)c1Cc1ccc(O)c(C(C)C)c1` [Compound 25, 2-(4-(4-hydroxy-3-isopropylbenzyl)-3-methyl-5-propylphenoxy)acetic acid], the “T3-benchmarked selectivity index (T3-SI)” value on TRβ is “++ (3×<T3-SI≤30×)”. In addition, the concentration for a half-maximal effect (EC50) on TRβ and at TRα was 100 to 1000 nM in each case.
